Reference: patent US8436040B2, “Method of treating conditions involving PPAR-receptors with indole compounds” (Laboratoires Fournier S.A., priority 2005, dated 2013)

Legend:
C2C12 cells = assay: β-oxidation of 1-C14 oleate on C2C12 cells differentiated in myotubes; format: cell-based, murine; conditions: 100 μM, 48 hours incubation
Procedure: A second series of tests was performed with the compounds according to the invention in order to confirm the activity deduced from their affinity for the aforementioned receptors. This test consists in measuring the β-oxidation on HuH7 cells of human hepatic origin and C2C12 cells of murine muscular origin after differentiation in myotubes.
The cells are inoculated into Petri dishes containing a central well. The products are added to the culture medium and incubated for 48 hours at different concentrations. After incubation for 22 hours, C14-radiolabeled oleate (1-C14 oleate) is added to the culture medium. The β-oxidation reaction is stopped 2 hours later by the addition of 40% perchloric acid.
The CO2 liberated during the oxidation of the oleate is trapped with KOH solution and then counted.
Each test is performed three times.
The results are expressed in % variation relative to the control dishes (dishes without compounds).

db/db mice = assay: db/db mouse model: serum glucose, triglyceride and cholesterol levels; format: in vivo; conditions: serum 4 hours after last gavage
Procedure: The test protocol is as follows:
Homozygous C57BL/Ks-db male mice (db/db mice), 11 to 13 weeks old at the start of the studies, are divided up into groups of 9-10 animals. The products are administered orally once a day for 5 days. One group of mice receives the vehicle only (0.5 or 1% methyl cellulose solution). A blood sample is taken from the retro-orbital sinus before treatment and 4 hours after the last gavage.
After centrifugation, the serum is collected and the cholesterol, triglyceride and glucose levels are measured using a multiparameter analyzer with commercial kits.
The results are expressed in % variation on the final day relative to the control group.

[1] = 30 mg/kg orally once a day for 5 days
[2] = 100 mg/kg orally once a day for 5 days
[3] = 3 mg/kg orally once a day for 5 days

SMILES | Cholesterol, % variation on the final day relative to the control group (db/db mice; [1]) | Glucose, % variation on the final day relative to the control group (db/db mice; [1]) | Triglycerides, % variation on the final day relative to the control group (db/db mice; [1]) | other results
O=C(O)CCc1cc2cc(C(F)(F)F)ccc2n1S(=O)(=O)c1ccccc1 [Example 4, 1-(Phenylsulfonyl)-5-(trifluoromethyl)-1H-indole-2-propanoic acid] | +41% | −30% | −12% | β-oxidation, % variation relative to the control dishes (C2C12 cells): 82%
O=C(O)CCc1cc2cc(Cl)ccc2n1S(=O)(=O)c1ccccc1 [Example 2, 5-Chloro-1-(phenylsulfonyl)-1H-indole-2-propanoic acid] | +30% | 0% | −7% | 
CC(C)OC(=O)C(C)(C)Oc1ccc(C(=O)c2ccc(Cl)cc2)cc1 [Fenofibrate] |  |  |  | Cholesterol, % variation on the final day relative to the control group (db/db mice; [2]): +32%; Glucose, % variation on the final day relative to the control group (db/db mice; [2]): −9%; Triglycerides, % variation on the final day relative to the control group (db/db mice; [2]): −7%
O=C(O)CCCc1cc2cc(Cl)ccc2n1S(=O)(=O)c1ccc2c(c1)OCO2 [Example 163, 1-[(1,3-Benzodioxol-5-yl)sulfonyl]-5-chloro-1H-indole-2-butanoic acid] | −15% | −38% | −35% | 
O=C(O)CCc1cc2cc(Cl)ccc2n1S(=O)(=O)c1ccc2ncsc2c1 [Example 155, 1-[(6-Benzothiazolyl)sulfonyl]-5-chloro-1H-indole-2-propanoic acid] | +38% | −35% | −41% | 
CN(CCOc1ccc(CC2SC(=O)NC2=O)cc1)c1ccccn1 (stereo not shown) [Rosiglitazone, rosiglitazone, reference compound] |  |  |  | Cholesterol, % variation on the final day relative to the control group (db/db mice; [3]): −30%; Glucose, % variation on the final day relative to the control group (db/db mice; [3]): −41%; Triglycerides, % variation on the final day relative to the control group (db/db mice; [3]): −52%
CC(OCc1cc2cc(Cl)ccc2n1S(=O)(=O)c1ccccc1)C(=O)O (stereo not shown) [Example 202, 2-[[5-Chloro-1-(phenylsulfonyl)-1H-indol-2-yl]methoxy]propanoic acid] | +25% | −52% | −48% | 
